Data on two compounds can be found in ChEMBL document CHEMBL1151185, “Isolation and structure elucidation of a novel antimalarial macrocyclic polylactone, menisporopsin A, from the fungus Menisporopsis theobromae” (J Nat Prod, 2004).

In brackets after ≈: the same amount, converted by molar mass. Activity calls are given as the source filed them. No cut-off for these calls is given here.

In test [1] the test system is Plasmodium falciparum. Kind of test: Antimalarial activity against multidrug-resistant Plasmodium falciparum K1 at 20 ug/mL as reduced [3H]hypoxanthine uptake. Format: functional, organism-based.
Test [2] has as its system Candida albicans. The test can be described thus: Antimicrobial activity against Candida albicans at 20ug/mL. Format: functional, organism-based.
For test [3], the system named is BC1. Kind of test: Cytotoxicity against human BC1 cells at 20 ug/mL by colorimetric method. Format: functional, cell-based.
Test [4] relates to KB. Kind of test: Cytotoxicity against human KB cells by colorimetric method. Format: functional, cell-based.
The test system of test [5] is Plasmodium falciparum. Kind of test: Antimalarial activity against multidrug-resistant Plasmodium falciparum K1 by [3H]hypoxanthine uptake. Format: functional, organism-based.
Test [6] in a line: Cytotoxicity against human BC1 cells by colorimetric method. Format: functional, cell-based.
Test [7] relates to Mycobacterium tuberculosis. Kind of test: Antimycobacterial activity against Mycobacterium tuberculosis H37Ra by microplate alamar blue assay. Format: functional. (In general: The colour change of resazurin is a common sign of viable cells or microbes.)

For `COc1cc2c(c(OC)c1)C(=O)O[C@H](C)CC(=O)O[C@H](C)Cc1cc(OC)cc(OC)c1C(=O)O[C@H](C)CC(=O)O[C@H](C)Cc1cc(OC)cc(OC)c1C(=O)O[C@H](C)C[C@@H](O)C2`, the outcome in test [1], in test [2] and in test [3] was inactive.

`C[C@@H]1Cc2cc(O)cc(O)c2C(=O)O[C@H](C)CC(=O)O[C@H](C)Cc2cc(O)cc(O)c2C(=O)O[C@H](C)C[C@@H](O)Cc2cc(O)cc(O)c2C(=O)O[C@H](C)CC(=O)O1` [MENISPOROPSIN A]: the values for the IC50 in test [4], in test [5] and in test [6] were 6 µg/mL (≈ 7.51 µM), 4 µg/mL (≈ 5.01 µM) and 5 µg/mL (≈ 6.26 µM), respectively. Further, in test [7], the lowest concentration to inhibit growth (MIC) was 50 µg/mL (≈ 62.6 µM). The result in test [2] was inactive.
